pIC50: −log10 of the molar value. Read-outs that look alike come from different tables or passages of the source.
What was measured:
Factor XIa = Factor XIa (Homo sapiens (Human), UniProt P03951); assay: Factor XIa inhibition assay (FLINT) utilizing a fluorophore-quencher pair peptide substrate; type: biochemical; details: 30 min preincubation, kinetic reads over 30 min, read-out: FXIa Kin Inh IC50
Summary of the method: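 FXIa ([…]) preincubated 30 min with compound (11-point 3-fold dilution, top 100 nM, 2% DMSO), then 15 μM quenched FXI Arg146-based peptide added; Tris pH 7.5, CaCl2, BSA, CHAPS. Fluorescence 485/520 nm read kinetically every 5 min over 30 min at RT; IC50 by 4-parameter fit.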

human plasma kallikrein = human plasma kallikrein (Homo sapiens (Human), UniProt P03952); assay: Kallikrein inhibition assay (FLINT) utilizing a quenched AMC peptide substrate; type: biochemical; details: 30 min preincubation, kinetic reads over 30 min, Z-Gly-Pro-Arg-AMC substrate 50 μM; read-out: Kallikrein Kin Inh IC50
Sequence of human plasma kallikrein (P03952 391-638): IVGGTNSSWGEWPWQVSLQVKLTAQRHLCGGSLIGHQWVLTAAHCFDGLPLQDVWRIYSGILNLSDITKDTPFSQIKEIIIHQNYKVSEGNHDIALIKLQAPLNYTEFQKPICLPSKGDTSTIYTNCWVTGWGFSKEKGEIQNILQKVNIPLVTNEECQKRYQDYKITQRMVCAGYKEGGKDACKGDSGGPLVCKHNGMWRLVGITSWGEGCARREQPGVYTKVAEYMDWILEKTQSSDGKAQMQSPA
Sequence of human plasma kallikrein (P03952 20-390 partner): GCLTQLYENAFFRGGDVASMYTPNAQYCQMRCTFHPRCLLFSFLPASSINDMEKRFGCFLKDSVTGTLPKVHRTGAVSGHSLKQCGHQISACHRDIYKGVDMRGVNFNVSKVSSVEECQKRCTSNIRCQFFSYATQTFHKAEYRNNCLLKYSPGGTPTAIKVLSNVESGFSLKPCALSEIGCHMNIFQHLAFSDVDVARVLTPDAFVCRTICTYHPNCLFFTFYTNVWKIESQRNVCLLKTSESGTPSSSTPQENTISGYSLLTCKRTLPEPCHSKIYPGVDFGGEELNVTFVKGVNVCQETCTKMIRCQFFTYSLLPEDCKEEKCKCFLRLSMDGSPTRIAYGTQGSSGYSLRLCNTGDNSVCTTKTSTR
Summary of the method: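 Enzyme (2 nM final) pre-incubated 30 min at room temperature with compound (11-point, 3-fold, top 1 μM, 2% DMSO), then 50 μM Z-Gly-Pro-Arg-AMC added in Tris pH 7.5 buffer. Kinetic fluorescence 340/440 nm every 5 min over 30 min; IC50 from 4-parameter logistic fit.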

[1] = 5Fam-KLTRAETV-K5Tamra substrate 15 μM
[2] = 5Fam-[…]-K5Tamra substrate 15 μM

Sequence of Factor XIa (P03951 388-625): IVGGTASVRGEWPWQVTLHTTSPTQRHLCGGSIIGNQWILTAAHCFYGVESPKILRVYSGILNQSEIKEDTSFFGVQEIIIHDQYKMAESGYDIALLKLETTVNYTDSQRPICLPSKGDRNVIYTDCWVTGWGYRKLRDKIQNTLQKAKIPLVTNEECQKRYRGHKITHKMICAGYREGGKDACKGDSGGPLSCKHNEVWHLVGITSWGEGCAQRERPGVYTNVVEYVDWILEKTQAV
Sequence of Factor XIa (P03951 19-387 partner): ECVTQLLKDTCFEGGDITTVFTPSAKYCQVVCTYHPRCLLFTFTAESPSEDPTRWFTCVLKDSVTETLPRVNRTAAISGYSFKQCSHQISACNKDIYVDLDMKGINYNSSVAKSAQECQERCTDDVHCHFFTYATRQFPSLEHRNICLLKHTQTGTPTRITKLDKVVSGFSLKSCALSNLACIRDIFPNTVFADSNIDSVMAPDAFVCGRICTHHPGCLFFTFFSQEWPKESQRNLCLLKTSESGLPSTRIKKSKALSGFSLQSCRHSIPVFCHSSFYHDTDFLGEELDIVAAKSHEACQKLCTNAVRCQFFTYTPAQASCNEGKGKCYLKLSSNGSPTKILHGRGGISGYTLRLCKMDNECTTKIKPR

Row | SMILES | pIC50 (Factor XIa; [1]) | pIC50 (human plasma kallikrein) | pIC50 (Factor XIa; [2])
1 | O=C1C=C(c2c(-n3cnnn3)ccc(Cl)c2F)C[C@H]2CC[C@H](c3ncc(-c4ccnc(-n5cncn5)c4F)[nH]3)N12 (single isomer, unassigned) [Example 112, (3*R,8aR)-7-(3-chloro-2-fluoro-6-(1H-tetrazol-1-yl)phenyl)-3-(5-(3-fluoro-2-(1H-1,2,4-triazol-1-yl)pyridin-4-yl)-1H-imidazol-2-yl)-2,3,8,8a-tetrahydroindolizin-5(1H)-one] | 8.02 | 7.69 | 
2 | O=C1C=C(c2c(-n3cnnn3)ccc(Cl)c2F)C[C@H]2CC[C@@H](c3nc(-c4ccnc(-c5ccn[nH]5)c4F)c[nH]3)N12 (single isomer, unassigned) [Example 115, (3S,8a*R)-7-(3-chloro-2-fluoro-6-(1H-tetrazol-1-yl)phenyl)-3-(4-(3-fluoro-2-(1H-pyrazol-5-yl)pyridin-4-yl)-1H-imidazol-2-yl)-2,3,8,8a-tetrahydroindolizin-5(1H)-one] | 8.82 | 8.72 | 
3 | O=C1C=C(c2c(-n3cnnn3)ccc(Cl)c2F)C[C@H]2CC[C@H](c3ncc(-c4ccnc(C5(O)CC5)c4F)[nH]3)N12 (single isomer, unassigned) [Example 116, (3*R,8aR)-7-(3-chloro-2-fluoro-6-(1H-tetrazol-1-yl)phenyl)-3-(5-(3-fluoro-2-(1-hydroxycyclopropyl)pyridin-4-yl)-1H-imidazol-2-yl-4-d)-2,3,8,8a-tetrahydroindolizin-5(1H)-one] | 8.08 | 7.19 | 
4 | O=C1Nc2ccc(-c3cnc([C@@H]4CC[C@@H]5CC(c6c(-n7cnnn7)ccc(Cl)c6F)=CC(=O)N54)[nH]3)c(F)c2CO1 (single isomer, unassigned) [Example 118, 6-(24(3*S,8a*R)-7-(3-chloro-2-fluoro-6-(1H-tetrazol-1-yl)phenyl)-5-oxo-1,2,3,5,8,8a-hexahydroindolizin-3-yl)-1H-imidazol-5-yl)-5-fluoro-1,4-dihydro-2H-benzo[d][1,3]oxazin-2-one] | 9.40 | 8.77 | 
5 | Nc1ccc(-c2cnc([C@H]3CC[C@@H]4CC(c5cc(Cl)ccc5-n5cnnn5)=CC(=O)N43)[nH]2)c(F)n1 (single isomer, unassigned) [Example 119, (3*R,8aR)-3-(5-(6-amino-2-fluoropyridin-3-yl-5-d)-1H-imidazol-2-yl)-7-(5-chloro-2-(1H-tetrazol-1-yl)phenyl-3-d)-2,3,8,8a-tetrahydroindolizin-5(1H)-one] | 9.22 | 7.93 | 
6 | Nc1ccc(-c2cnc([C@@H]3CC[C@@H]4CC(c5cc(Cl)ccc5-n5cnnn5)=CC(=O)N43)[nH]2)c(F)n1 (single isomer, unassigned) [Example 120, (3*S,8aR)-3-(5-(6-amino-2-fluoropyridin-3-yl-5-d)-1H-imidazol-2-yl)-7-(5-chloro-2-(1H-tetrazol-1-yl)phenyl-3-d)-2,3,8,8a-tetrahydroindolizin-5(1H)-one] | 8.35 | 7.17 | 
7 | [2H]c1cc(Cl)cc(C2=CC(=O)N3[C@H](CC[C@@H]3c3ncc(-c4ccc(N)nc4F)[nH]3)C2)c1-n1cnnn1 (single isomer, unassigned) [Example 121] |  | 7.77 | 9.15
8 | Nc1ccc(-c2cnc([C@@H]3CC[C@@H]4CC(c5cc(Cl)ccc5-n5cnnn5)=CC(=O)N43)[nH]2)c(F)n1 (single isomer, unassigned) [Example 122, (3*S,8aR)-3-(5-(6-amino-2-fluoropyridin-3-yl)-1H-imidazol-2-yl)-7-(5-chloro-2-(1H-tetrazol-1-yl)phenyl-3-d)-2,3,8,8a-tetrahydroindolizin-5(1H)-one] | 8.40 | 7.27 | 
9 | [2H]c1nc([C@H]2CC[C@]3([2H])CC(c4c(-n5cnnn5)ccc(Cl)c4F)=CC(=O)N23)[nH]c1-c1c(F)nc(N)c([2H])c1[2H] (single isomer, unassigned) [Example 131, (3R*,8aR*)-3-(5-(6-amino-2-fluoropyridin-3-yl-4,5-d2)-1H-imidazol-2-yl-4-d)-7-(3-chloro-2-fluoro-6-(1H-tetrazol-1-yl)phenyl)-2,3,8,8a-tetrahydroindolizin-5(1H)-one-8a-d] |  | 7.93 | 9.05
10 | [2H]c1nc([C@@H]2CC[C@]3([2H])CC(c4c(-n5cnnn5)ccc(Cl)c4F)=CC(=O)N23)[nH]c1-c1c(F)nc(N)c([2H])c1[2H] (single isomer, unassigned) [Example 132, (3S *,8aR*)-3-(5-(6-amino-2-fluoropyridin-3-yl-4,5-d2)-1H-imidazol-2-yl-4-d)-7-(3-chloro-2-fluoro-6-(1H-tetrazol-1-yl)phenyl)-2,3,8,8a-tetrahydroindolizin-5(1H)-one-8a-d] |  | 8.17 | 9.40
11 | CCN(CCO)c1nccc(-c2cnc([C@@H]3CC[C@H]4CC(c5c(-n6cnnn6)ccc(Cl)c5F)=CC(=O)N43)[nH]2)c1F (single isomer, unassigned) [Example 135, (3S,8a*S)-7-(3-chloro-2-fluoro-6-(1H-tetrazol-1-yl)phenyl)-3-(5-(2-(ethyl(2-hydroxyethyl)amino)-3-fluoropyridin-4-yl)-1H-imidazol-2-yl)-2,3,8,8a-tetrahydroindolizin-5(1H)-one] | 7.65 | 7.81 | 
12 | CCN(CCO)c1nccc(-c2cnc([C@@H]3CC[C@@H]4CC(c5c(-n6cnnn6)ccc(Cl)c5F)=CC(=O)N43)[nH]2)c1F (single isomer, unassigned) [Example 136, (3S,8a*R)-7-(3-chloro-2-fluoro-6-(1H-tetrazol-1-yl)phenyl)-3-(5-(2-(ethyl(2-hydroxyethyl)amino)-3-fluoropyridin-4-yl)-1H-imidazol-2-yl)-2,3,8,8a-tetrahydroindolizin-5(1H)-one] | 8.32 | 8.20 | 
13 | N#CC1(c2nccc(-c3cnc([C@@H]4CC[C@@H]5CC(c6c(-n7cnnn7)ccc(Cl)c6F)=CC(=O)N54)[nH]3)c2F)COC1 (single isomer, unassigned) [Example 138, 3-(4-(2-((3S,8aR*)-7-(3-chloro-2-fluoro-6-(1H-tetrazol-1-yl)phenyl)-5-oxo-1,2,3,5,8,8a-hexahydroindolizin-3-yl)-1H-imidazol-5-yl)-3-fluoropyridin-2-yl)oxetane-3-carbonitrile] | 7.49 | 6.86 | 
14 | N#CC1(c2nccc(-c3cnc([C@@H]4CC[C@@H]5CC(c6c(-n7cnnn7)ccc(Cl)c6F)=CC(=O)N54)[nH]3)c2F)CC1 (single isomer, unassigned) [Example 139, 1-(4-(2-((3S,8a*R)-7-(3-chloro-2-fluoro-6-(1H-tetrazol-1-yl)phenyl)-5-oxo-1,2,3,5,8,8a-hexahydroindolizin-3-yl)-1H-imidazol-5-yl)-3-fluoropyridin-2-yl)cyclopropane-1-carbonitrile] | 7.54 | 7.66 | 
15 | O=C1C=C(c2c(-n3cc(C(F)(F)F)nn3)ccc(Cl)c2F)C[C@@H]2CC[C@H](c3ncc(-c4c[nH]c5ncccc45)[nH]3)N12 (single isomer, unassigned) [Example 140, (3*R,8aS)-3-(5-(1H-pyrrolo[2,3-b]pyridin-3-yl)-1H-imidazol-2-yl)-7-(3-chloro-2-fluoro-6-(4-(trifluoromethyl)-1H-1,2,3-triazol-1-yl)phenyl)-2,3,8,8a-tetrahydroindolizin-5(1H)-one] | 8.54 | 8.21 | 
16 | C[C@@H](Oc1nccc(-c2cnc([C@@H]3CC[C@@H]4CC(c5c(-n6cnnn6)ccc(Cl)c5F)=CC(=O)N43)[nH]2)c1F)c1ncco1 (single isomer, unassigned) [Example 141, (3*S,8a*R)-7-(3-chloro-2-fluoro-6-(1H-tetrazol-1-yl)phenyl)-3-(5-(3-fluoro-2-((*R)-1-(oxazol-2-yl)ethoxy)pyridin-4-yl)-1H-imidazol-2-yl)-2,3,8,8a-tetrahydroindolizin-5(1H)-one] | 7.97 | 7.89 | 
17 | C[C@H](Oc1nccc(-c2cnc([C@@H]3CC[C@@H]4CC(c5c(-n6cnnn6)ccc(Cl)c5F)=CC(=O)N43)[nH]2)c1F)c1ncco1 (single isomer, unassigned) [Example 142, (3*S,8a*R)-7-(3-chloro-2-fluoro-6-(1H-tetrazol-1-yl)phenyl)-3-(5-(3-fluoro-2-((*S)-1-(oxazol-2-yl)ethoxy)pyridin-4-yl)-1H-imidazol-2-yl)-2,3,8,8a-tetrahydroindolizin-5(1H)-one] | 8.21 | 7.97 | 
18 | O=C1C=C(c2c(-n3cnnn3)ccc(Cl)c2F)C[C@H]2CC[C@@H](c3ncc(-c4ccnc(C[C@H](O)C(F)(F)F)c4F)[nH]3)N12 (single isomer, unassigned) [Example 143, (3S,8aR)-7-(3-chloro-2-fluoro-6-(1H-tetrazol-1-yl)phenyl)-3-(5-(3-fluoro-2-((*S)-3,3,3-trifluoro-2-hydroxypropyl)pyridin-4-yl)-1H-imidazol-2-yl)-2,3,8,8a-tetrahydroindolizin-5(1H)-one] | 8.62 | 7.48 | 
19 | O=C1C=C(c2c(-n3cnnn3)ccc(Cl)c2F)C[C@H]2CC[C@@H](c3ncc(-c4ccnc(C[C@@H](O)C(F)(F)F)c4F)[nH]3)N12 (single isomer, unassigned) [Example 144, (3S,8aR)-7-(3-chloro-2-fluoro-6-(1H-tetrazol-1-yl)phenyl)-3-(5-(3-fluoro-2-((*R)-3,3,3-trifluoro-2-hydroxypropyl)pyridin-4-yl)-1H-imidazol-2-yl)-2,3,8,8a-tetrahydroindolizin-5(1H)-one] | 8.51 | 7.36 | 
